One data set can be described thus: Crystal form stability. The following applies: crystal forms defined by XRPD peaks.
Data set [1] is described as follows: Crystal form oral absorbability. Conditions: crystal forms defined by XRPD peaks.
Another data set deals with advanced iCCA. The following applies: 1st line; patients with advanced iCCA; cited from earlier work.

`C=CC(=O)N1CC[C@H](n2nc(C#Cc3cc(OC)cc(OC)c3)c3c(N)ncnc32)C1` [Compound (1), (S)-1-[(3)-[4-amino-3-[(3,5-dimethoxyphenyl)ethynyl]-1H-pyrazolo[3,4-d]pyrimidin-1-yl]-1-pyrrolidinyl]-2-propen-1-one]: the stability result in “Crystal form stability” is given as “good stability”. Besides, the oral absorbability entry in data set [1] was “excellent oral absorbability”. Gemcitabine-cisplatin: in the data set with advanced iCCA, the overall survival is 1 year.

The record behind these values is patent US20240165120A1, “TREATING CANCER IN PATIENT HAVING CO-OCCURRING GENETIC ALTERATION IN FGFR2 AND A CANCER DRIVER GENE” (TAIHO PHARMACEUTICAL CO., LTD., priority 2021, published 2024).
